One block for each compound: values may come before it.
Experiments:
[1] = target: T1, TAS2R7 (Homo sapiens, UniProt Q9NYW3); details: known from the art; cited from earlier work
T1 sequence (Q9NYW3 1-318): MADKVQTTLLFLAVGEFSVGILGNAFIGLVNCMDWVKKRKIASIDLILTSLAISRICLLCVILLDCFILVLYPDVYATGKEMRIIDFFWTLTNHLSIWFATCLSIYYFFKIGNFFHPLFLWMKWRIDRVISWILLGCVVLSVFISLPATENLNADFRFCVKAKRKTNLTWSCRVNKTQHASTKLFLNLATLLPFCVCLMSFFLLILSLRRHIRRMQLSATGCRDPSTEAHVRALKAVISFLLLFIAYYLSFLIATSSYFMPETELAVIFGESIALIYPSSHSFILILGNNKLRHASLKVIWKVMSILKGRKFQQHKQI

[2] = target: T2, human TAS2R7 (Homo sapiens, UniProt Q9NYW3, L71P); test: Fluo-4 calcium assay, HEK293T/Gα16-gustducin44 cells transiently expressing TAS2R7; assay type: cell-based; details: for TAS2R7 ΔF/F0: transiently transfected cells
T2 construct: RSS tag (first 45 amino acids of rat somatostatin receptor subtype 3, membrane export tag) (N); expressed in transfected cells
T2 sequence (Q9NYW3 with tags, fused parts or gaps L71P): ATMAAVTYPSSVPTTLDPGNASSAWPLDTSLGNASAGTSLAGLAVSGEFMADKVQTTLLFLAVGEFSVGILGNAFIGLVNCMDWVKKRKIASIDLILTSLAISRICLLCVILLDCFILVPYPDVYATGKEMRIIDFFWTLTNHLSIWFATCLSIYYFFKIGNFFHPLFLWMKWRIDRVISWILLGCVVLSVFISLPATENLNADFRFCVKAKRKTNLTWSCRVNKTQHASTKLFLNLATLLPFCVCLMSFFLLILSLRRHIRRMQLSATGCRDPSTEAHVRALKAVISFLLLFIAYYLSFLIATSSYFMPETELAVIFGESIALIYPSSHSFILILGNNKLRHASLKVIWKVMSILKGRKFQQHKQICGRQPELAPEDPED
Protocol: On day 0, the HEK293T/Gα16-gustducin 44 cells were plated in 96-well black wall, clear-bottom plates at a density of 15,000 cells per well and grown overnight in growth media (DMEM with 10% (v/v) heat-inactivated fetal bovine serum, 2 mM L-glutamine, 100 units/ml penicillin, 100 μg/ml streptomycin).
On day 1, the media was changed to an antibiotic-free and serum-free DMEM. The cells were transfected with TAS2R7 using Lipofectamine 2000 (Invitrogen).
Per well of a 96-well plate, 150 ng of vector DNA (TAS2R7 expression vectors from example 1) was diluted in 12.5 μl of DMEM. In a second tube, 0.3 μl of Lipofectamine 2000 was diluted in 12.5 μl of DMEM and incubated for 5 min at room temperature. After the 5 min, both solutions were mixed and incubated for 20 min at RT. The growth medium in the plate was exchanged for 50 μl of DMEM and 25 μl of the lipofectamine/DNA mixture was incubated on the cells for 3-4 hours at 37° in a humidified atmosphere. This mixture was then replaced with an antibiotic-free, serum-containing DMEM.
24 hours post transfection, the cells were used in the Fluo-4 Calcium Assay as described in Example 3.
(§1) At day 0, the HEK293T cell line expressing Gα16-gustducin44 and a TAS2R7 bitter taste receptor formed as described in examples 2a or 2b was seeded in antibiotic-free growth medium (standard DMEM with 10% (v/v) heat-inactivated fetal bovine serum, 2 mM L-glutamine […]) into black wall/clear bottom 96-well plates, coated with poly(ethylenimine) (0.005% v/v) at a concentration of 15,000 cells per well and incubated for 48 hours in humidified atmosphere (37° C., 5% CO2).
(§2) At the time of the assay, the growth medium was discarded and the cells were in humidified atmosphere (37° C., 5% CO2) for 1 hour with […] of loading buffer consisting of 1.5 μM Fluo-4 AM and 2.5 mM probenecid (Sigma-Aldrich, St. Louis, Mo., U.S.) in DMEM.
(§3) Afterwards, the 96-well plate was washed 5 times with 100 μl of assay buffer (130 mM NaCl, 5 mM KCl, 10 mM HEPES, 2 mM CaCl2, and 5 mM dextrose, pH 7.4) per well, using an automated plate washer (BioTek). The plate was further incubated for 30 minutes at room temperature in the dark to allow for complete de-esterification of the Fluo-4. Afterwards the plate was washed 5 times with 100 μl of assay buffer per well, and reconstituted with 100 μl of assay buffer per well.
(§4) For assay reading the plate was placed in a Fluorometric Imaging Plate Reader (FLIPR) (FLIPR-TETRA™, Molecular Devices, Sunnyvale, Calif., US), and receptor activation was initiated by addition of 20 microliter of a tenfold concentrated agonist stock solution (to give the desired agonist end concentration when added to the 180 microliter assay buffer volume), which was prepared in assay buffer.
(§5) Fluorescence was continuously monitored for 20 seconds to give a signal baseline (averaged to give F0) prior to agonist addition and for 120 seconds after agonist addition. The change in signal divided by F0 gives ΔF/F0 indicated in the table, with ΔF being the maximum signal occurring within the 120 seconds minus the minimum signal (occurring within the 120 seconds after agonist addition).
(§6) The obtained calcium signals were corrected for the response of cells expressing only the G-Protein α subunit (Gα16-gustducin44) and normalized to the fluorescence of cells prior to the stimulus using ΔF/F0 (Fmax−Fmin/F0).
The intracellular calcium response following the addition of L-menthol was determined in a HEK293T cell line stably expressing Gα16-gustducin44 and transiently expressing TAS2R7, formed as described in example 2a.

[3] = test system: more than 15 of the other human TAS2Rs; test: Activation test on other human TAS2Rs; assay type: cell-based; details: more than 15 other human TAS2Rs
[4] = target: T2, human TAS2R7; test: Fluo-4 calcium assay, HEK293T/Gα16-gustducin44 cell line stably expressing TAS2R7; assay type: cell-based; details: stable cell line
Protocol: Cell lines that stably expresses TAS2R7 was generated by transfecting the pcDNA3.1Zeo-TAS2R7 construct into HEK293T/Gα16-gustducin 44 cells (formed as described in example 1). The host cell line HEK-293T is commercially available from the American Tissue Culture Collection (ATCC), ATCC®#CRL-11268.
TAS2R7 expressing cells were identified by their response to 2.6 mM L-menthol, which was determined via automated fluorimetric imaging on the FLIPR-TETRA™ (Molecular Devices, Sunnyvale, Calif., U.S.) as described in example 3. One clone was selected, resulting in the HEK293T/Gα16-gustducin 444/TAS2R7 cell line.
as §1, §2, §3, §4, §5
All data was collected from at least two independent experiments each carried out in triplicate.
A concentration-response analysis was performed and EC50 values were calculated by nonlinear regression using the function f(x)=(a−d)/(1+(x/C)^nh)+d; with a=minimum signal, d=maximum signal, nh=hill coefficient, C=EC50, and x=agonist concentration. EC50 is the molar concentration of an agonist which produces 50% of the maximum possible effective response for that agonist.
as §6
To confirm that the cell line formed in example 2b stably expresses the bitter taste receptor TAS2R7, a concentration-response curve for L-menthol was generated. […] The standard deviation (+/−STD) is also indicated.
Each sample (receptors as well as controls) contained a final concentration of 0.02% DMSO to allow for comparability of all examples below.

[5] = test system: HEK293T Gα16gustducin44 cells (that do not express TAS2R7); test: Fluo-4 calcium assay, negative control HEK293T Gα16gustducin44 cells that do not express TAS2R7; assay type: cell-based, human; details: cells without TAS2R7

Structure (SMILES): C=C[C@H]1C[N@@]2CC[C@H]1C[C@H]2[C@H](O)c1ccnc2ccc(OC)cc12 [quinine]
response of TAS2R7 [1]: known to respond

Structure (SMILES): CCN(CC)CCCC(C)Nc1ccnc2cc(Cl)ccc12 (centres unmarked) [chloroquine]
response of TAS2R7 [1]: known to respond

Structure (SMILES): CC1CC[C@H](C(C)C)[C@@H](O)C1 (stereo partly drawn) [D-menthol]
activation of TAS2R7 ([2]; similar results as for L-menthol): shown to activate TAS2R7

TAS2R7 ΔF/F0 ([4]; L-menthol 0.01 mM): 0.09 | TAS2R7 ΔF/F0 ([4]; L-menthol 0.02 mM): 0.09 | TAS2R7 ΔF/F0 ([4]; L-menthol 0.04 mM): 0.13 | TAS2R7 ΔF/F0 ([4]; L-menthol 0.08 mM): 0.12 | TAS2R7 ΔF/F0 ([4]; L-menthol 0.16 mM): 0.23 | TAS2R7 ΔF/F0 ([4]; L-menthol 0.33 mM): 0.61 | TAS2R7 ΔF/F0 ([4]; L-menthol 0.65 mM): 1.03 | TAS2R7 ΔF/F0 ([4]; L-menthol 1.30 mM): 1.16 | TAS2R7 ΔF/F0 ([4]; L-menthol 2.60 mM): 0.92 | activation of TAS2R7 [4]: activated | EC50 ([4]; nonlinear regression of concentration-response, read-out: calculated EC50 value for TAS2R7): 310 µM | TAS2R7 ΔF/F0 ([2]; L-menthol 0.01 mM): 0.09 | TAS2R7 ΔF/F0 ([2]; L-menthol 0.02 mM): 0.08 | TAS2R7 ΔF/F0 ([2]; L-menthol 0.04 mM): 0.08 | TAS2R7 ΔF/F0 ([2]; L-menthol 0.08 mM): 0.10 | TAS2R7 ΔF/F0 ([2]; L-menthol 0.16 mM): 0.15 | TAS2R7 ΔF/F0 ([2]; L-menthol 0.33 mM): 0.34 | TAS2R7 ΔF/F0 ([2]; L-menthol 0.65 mM): 0.41 | TAS2R7 ΔF/F0 ([2]; L-menthol 1.30 mM): 0.53 | TAS2R7 ΔF/F0 ([2]; L-menthol 2.60 mM): 0.65
Structure (SMILES): CC(C)[C@@H]1CC[C@@H](C)C[C@H]1O [L-menthol]
activation of other human TAS2Rs [3]: not to be activated | calcium signalling upon addition ([2]; cells transiently expressing human TAS2R7): significant concentration-dependent increase | Neg. Control ΔF/F0 ([5]; L-menthol 0.01 mM): 0.09 | Neg. Control ΔF/F0 ([5]; L-menthol 0.02 mM): 0.08 | Neg. Control ΔF/F0 ([5]; L-menthol 0.04 mM): 0.08 | Neg. Control ΔF/F0 ([5]; L-menthol 0.08 mM): 0.10 | Neg. Control ΔF/F0 ([5]; L-menthol 0.16 mM): 0.15 | Neg. Control ΔF/F0 ([5]; L-menthol 0.33 mM): 0.34 | Neg. Control ΔF/F0 ([5]; L-menthol 0.65 mM): 0.41 | Neg. Control ΔF/F0 ([5]; L-menthol 1.30 mM): 0.53 | Neg. Control ΔF/F0 ([5]; L-menthol 2.60 mM): 0.65 | change above the background signal in negative control [5]: did not show a significant change above the background signal

Reference: patent US8557530B2, “Use of a TAS2R7 nucleic acid sequence to identify modulators” (Givaudan SA, priority 2008, dated 2013)
